Data reported in ChEMBL document CHEMBL5576097, “Synthesis and biological evaluation of novel penindolone derivatives as potential antiproliferative agents against SCLC in vitro” (Bioorg Med Chem Lett, 2024).
The source made the active and inactive calls. No cut-off for these calls is given here.

Experiments:
H69AR [1] = assay: Antiproliferative activity against human NCI-H69AR cells by SRB assay; type: functional, cell-based
H69AR [2] = assay: Induction of apoptosis in human NCI-H69AR cells assessed as dead cells at 4 micromol/L measured after 48 hrs by Annexin V-FITC/PI staining based flow cytometry analysis (reference value: 0%); type: functional; conditions: dose 4 µmol/L, at 4 µM
H69AR [3] = assay: Induction of apoptosis in human NCI-H69AR cells assessed as early apoptotic cells at 4 micromol/L measured after 48 hrs by Annexin V-FITC/PI staining based flow cytometry analysis (reference value: 1.96%); type: functional; conditions: dose 4 µmol/L, at 4 µM
H69AR [4] = assay: Induction of apoptosis in human NCI-H69AR cells assessed as late apoptotic cells at 4 micromol/L measured after 48 hrs by Annexin V-FITC/PI staining based flow cytometry analysis (reference value: 0.38%); type: functional; conditions: dose 4 µmol/L, at 4 µM
H69AR [5] = assay: Induction of cell cycle arrest in human NCI-H69AR cells assessed as reduction in number of cells in S phase measured after 24 hrs by flow cytometry analysis; type: functional, cell-based; conditions: dose 0-8 µM
H69AR [6] = assay: Inhibition of colony formation in human NCI-H69AR cells; type: functional, cell-based; conditions: dose 0-8 µM
H69AR [7] = assay: Induction of apoptosis in human NCI-H69AR cells assessed as increase in cleaved caspase-8 protein expression by Western blot analysis; type: functional, cell-based; conditions: dose 0.5-8 µmol/L
H69AR [8] = assay: Induction of apoptosis in human NCI-H69AR cells assessed as dead cells at 2 micromol/L measured after 48 hrs by Annexin V-FITC/PI staining based flow cytometry analysis (reference value: 0%); type: functional; conditions: dose 2 µmol/L, at 2 µM
H69AR [9] = assay: Induction of apoptosis in human NCI-H69AR cells assessed as increase in cleaved PARP protein expression by Western blot analysis; type: functional, cell-based; conditions: dose 0.5-8 µmol/L
H69AR [10] = assay: Induction of apoptosis in human NCI-H69AR cells assessed as early apoptotic cells at 8 micromol/L measured after 48 hrs by Annexin V-FITC/PI staining based flow cytometry analysis (reference value: 1.96%); type: functional; conditions: dose 8 µmol/L, at 8 µM
H69AR [11] = assay: Induction of apoptosis in human NCI-H69AR cells assessed as late apoptotic cells at 8 micromol/L measured after 48 hrs by Annexin V-FITC/PI staining based flow cytometry analysis (reference value: 0.38%); type: functional; conditions: dose 8 µmol/L, at 8 µM
H69AR [12] = assay: Induction of apoptosis in human NCI-H69AR cells assessed as increase in BAX protein expression by Western blot analysis; type: functional, cell-based; conditions: dose 0.5-8 µmol/L
NCI-H358 = assay: Antiproliferative activity against human NCI-H358 cells by SRB assay; type: functional, cell-based
H69AR [13] = assay: Induction of cell cycle arrest in human NCI-H69AR cells assessed as increase in number of cells in G0/G1 phase at 0 to 8 uM measured after 24 hrs by flow cytometry analysis; type: functional, cell-based; conditions: dose 0-8 µM
H69AR [14] = assay: Inhibition of colony formation in human NCI-H69AR cells at 8 uM relative to control; type: functional
H69AR [15] = assay: Induction of apoptosis in human NCI-H69AR cells assessed as reduction in Bcl-2 protein expression by Western blot analysis; type: functional, cell-based; conditions: dose 0.5-8 µmol/L
H69AR [16] = assay: Induction of apoptosis in human NCI-H69AR cells assessed as reduction in XIAP protein expression by Western blot analysis; type: functional, cell-based; conditions: dose 0.5-8 µmol/L
H69AR [17] = assay: Induction of apoptosis in human NCI-H69AR cells assessed as dead cells at 8 micromol/L measured after 48 hrs by Annexin V-FITC/PI staining based flow cytometry analysis (reference value: 0%); type: functional; conditions: dose 8 µmol/L, at 8 µM
H69AR [18] = assay: Induction of apoptosis in human NCI-H69AR cells assessed as early apoptotic cells at 2 micromol/L measured after 48 hrs by Annexin V-FITC/PI staining based flow cytometry analysis (reference value: 1.96%); type: functional; conditions: dose 2 µmol/L, at 2 µM
H69AR [19] = assay: Induction of apoptosis in human NCI-H69AR cells assessed as live cells at 8 micromol/L measured after 48 hrs by Annexin V-FITC/PI staining based flow cytometry analysis (reference value: 97.7%); type: functional; conditions: dose 8 µmol/L, at 8 µM
A549 = assay: Antiproliferative activity against human A549 cells by SRB assay; type: functional, cell-based
H69AR [20] = assay: Induction of apoptosis in human NCI-H69AR cells assessed as live cells at 4 micromol/L measured after 48 hrs by Annexin V-FITC/PI staining based flow cytometry analysis (reference value: 97.7%); type: functional; conditions: dose 4 µmol/L, at 4 µM
H69AR [21] = assay: Induction of apoptosis in human NCI-H69AR cells assessed as live cells at 2 micromol/L measured after 48 hrs by Annexin V-FITC/PI staining based flow cytometry analysis (reference value: 97.7%); type: functional; conditions: dose 2 µmol/L, at 2 µM
H69AR [22] = assay: Induction of apoptosis in human NCI-H69AR cells assessed as late apoptotic cells at 2 micromol/L measured after 48 hrs by Annexin V-FITC/PI staining based flow cytometry analysis (reference value: 0.38%); type: functional; conditions: dose 2 µmol/L, at 2 µM

Cc1cc(C(=O)c2ccc(Cl)cc2)c(O)c(Cc2[nH]c3ccccc3c2Cc2c(O)c(C)cc(C(=O)c3ccc(Cl)cc3)c2O)c1O
IC50 (H69AR [1]): 1.64 µM

Cc1cc(C(=O)c2ccccc2Br)c(O)c(Cc2[nH]c3ccccc3c2Cc2c(O)c(C)cc(C(=O)c3ccccc3Br)c2O)c1O
IC50 (H69AR [1]): 7 µM

Cc1cc(C(=O)c2ccc(CCl)cc2)c(O)c(Cc2[nH]c3ccccc3c2Cc2c(O)c(C)cc(C(=O)c3ccc(CCl)cc3)c2O)c1O
IC50 (H69AR [1]): 13.2 µM

Cc1cc(C(=O)c2cccc(F)c2)c(O)c(Cc2[nH]c3ccccc3c2Cc2c(O)c(C)cc(C(=O)c3cccc(F)c3)c2O)c1O
IC50 (H69AR [1]): 1.94 µM

Cc1ccc(C(=O)c2cc(C)c(O)c(Cc3[nH]c4ccccc4c3Cc3c(O)c(C)cc(C(=O)c4ccc(C)cc4)c3O)c2O)cc1
IC50 (H69AR [1]): 3.41 µM

Cc1cc(C(=O)c2ccccc2F)c(O)c(Cc2[nH]c3ccccc3c2Cc2c(O)c(C)cc(C(=O)c3ccccc3F)c2O)c1O
IC50 (H69AR [1]): 5.34 µM

COc1ccc(C(=O)c2cc(C)c(O)c(Cc3[nH]c4ccccc4c3Cc3c(O)c(C)cc(C(=O)c4ccc(OC)cc4)c3O)c2O)cc1
IC50 (H69AR [1]): 3.36 µM

Cc1cc(C(=O)c2ccc(F)cc2)c(O)c(Cc2[nH]c3ccccc3c2Cc2c(O)c(C)cc(C(=O)c3ccc(F)cc3)c2O)c1O
IC50 (H69AR [1]): 2.21 µM

Cc1cc(C(=O)c2cccc(Cl)c2)c(O)c(Cc2[nH]c3ccccc3c2Cc2c(O)c(C)cc(C(=O)c3cccc(Cl)c3)c2O)c1O
IC50 (H69AR [1]): 2.81 µM

Cc1cc(C(=O)c2ccc(C(F)(F)F)cc2)c(O)c(Cc2[nH]c3ccccc3c2Cc2c(O)c(C)cc(C(=O)c3ccc(C(F)(F)F)cc3)c2O)c1O
IC50 (H69AR [1]): 4.02 µM

Cc1cc(C(=O)c2ccccc2)c(O)c(Cc2[nH]c3ccccc3c2Cc2c(O)c(C)cc(C(=O)c3ccccc3)c2O)c1O
IC50 (H69AR [1]): 7.58 µM

Cc1cccc(C(=O)c2cc(C)c(O)c(Cc3[nH]c4ccccc4c3Cc3c(O)c(C)cc(C(=O)c4cccc(C)c4)c3O)c2O)c1
IC50 (H69AR [1]): 4.78 µM

Cc1cc(C(=O)CC(C)C)c(O)c(Cc2[nH]c3ccccc3c2Cc2c(O)c(C)cc(C(=O)CC(C)C)c2O)c1O
IC50 (H69AR [1]): > 50 µM

Cc1cc(C(=O)c2ccc3ccccc3c2)c(O)c(Cc2[nH]c3ccccc3c2Cc2c(O)c(C)cc(C(=O)c3ccc4ccccc4c3)c2O)c1O
IC50 (H69AR [1]): 41.5 µM

Cc1ccccc1C(=O)c1cc(C)c(O)c(Cc2[nH]c3ccccc3c2Cc2c(O)c(C)cc(C(=O)c3ccccc3C)c2O)c1O
IC50 (H69AR [1]): 3.17 µM

Cc1cc(C(=O)c2ccc(Cl)cc2Cl)c(O)c(Cc2[nH]c3ccccc3c2Cc2c(O)c(C)cc(C(=O)c3ccc(Cl)cc3Cl)c2O)c1O
IC50 (H69AR [1]): 4 µM

Cc1cc(C(=O)c2ccccc2Cl)c(O)c(Cc2[nH]c3ccccc3c2Cc2c(O)c(C)cc(C(=O)c3ccccc3Cl)c2O)c1O
IC50 (H69AR [1]): 5.97 µM

Cc1cc(C(=O)c2cccc(Br)c2)c(O)c(Cc2[nH]c3ccccc3c2Cc2c(O)c(C)cc(C(=O)c3cccc(Br)c3)c2O)c1O
IC50 (H69AR [1]): 1.86 µM

Cc1cc(C(=O)c2ccc(Br)cc2)c(O)c(Cc2[nH]c3ccccc3c2Cc2c(O)c(C)cc(C(=O)c3ccc(Br)cc3)c2O)c1O
Activity (H69AR [2]): 0.057% | Activity (H69AR [3]): 11.3% | Activity (H69AR [4]): 5.7% | Activity (H69AR [5]): Dose-Dependent Effect | inhibition (H69AR [6]): Dose-Dependent Effect | Activity (H69AR [7]): Dose-Dependent Effect | Activity (H69AR [8]): 0.01% | Activity (H69AR [9]): Dose-Dependent Effect | Activity (H69AR [10]): 28.5% | Activity (H69AR [11]): 8.22% | Activity (H69AR [12]): Dose-Dependent Effect | IC50 (NCI-H358): 35.8 µM | Activity (H69AR [13]): Active | inhibition at 8 µM (H69AR [14]): 100% | Activity (H69AR [15]): Dose-Dependent Effect | Activity (H69AR [16]): Dose-Dependent Effect | Activity (H69AR [17]): 0.46% | Activity (H69AR [18]): 4.85% | Activity (H69AR [19]): 62.8% | IC50 (A549): 21.2 µM | Activity (H69AR [20]): 82.9% | IC50 (H69AR [1]): 1.58 µM | Activity (H69AR [21]): 92.9% | Activity (H69AR [22]): 2.24%

CCC(=O)c1cc(C)c(O)c(Cc2[nH]c3ccccc3c2Cc2c(O)c(C)cc(C(=O)CC)c2O)c1O
IC50 (H69AR [1]): > 50 µM

COc1cccc(C(=O)c2cc(C)c(O)c(Cc3[nH]c4ccccc4c3Cc3c(O)c(C)cc(C(=O)c4cccc(OC)c4)c3O)c2O)c1
IC50 (H69AR [1]): 4.25 µM

CCc1cc(C(C)=O)c(O)c(Cc2[nH]c3ccccc3c2Cc2c(O)c(CC)cc(C(C)=O)c2O)c1O
IC50 (H69AR [1]): > 50 µM

CC(=O)c1cc(C)c(O)c(Cc2[nH]c3ccccc3c2Cc2c(O)c(C)cc(C(C)=O)c2O)c1O
IC50 (H69AR [1]): 42.5 µM
